For eleven compounds, IC50 results are on record in US9862708B2, “Pyrazolone compounds and uses thereof” (Tempest Therapeutics, Inc., priority 2014, dated 2018).

What is called IC50 is the concentration needed to halve the response being measured.

This test concerns the target T1, human PPARα (Homo sapiens, UniProt Q07869).
T1 construct: host or cells: proprietary non-human mammalian cells
T1 sequence (Q07869 1-468): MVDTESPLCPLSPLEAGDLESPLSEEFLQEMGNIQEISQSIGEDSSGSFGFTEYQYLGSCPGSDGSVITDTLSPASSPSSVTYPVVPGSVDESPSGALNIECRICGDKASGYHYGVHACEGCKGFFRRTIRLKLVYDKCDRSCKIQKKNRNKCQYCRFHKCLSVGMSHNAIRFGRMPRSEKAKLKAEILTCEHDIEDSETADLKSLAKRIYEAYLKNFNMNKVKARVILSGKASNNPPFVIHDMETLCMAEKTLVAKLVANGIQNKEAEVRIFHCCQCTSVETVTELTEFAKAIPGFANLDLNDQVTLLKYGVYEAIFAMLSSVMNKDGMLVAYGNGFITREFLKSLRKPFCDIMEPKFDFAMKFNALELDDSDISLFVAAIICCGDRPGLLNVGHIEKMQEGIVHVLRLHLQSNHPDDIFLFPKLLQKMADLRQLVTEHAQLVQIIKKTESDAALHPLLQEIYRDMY
Put plainly: Human PPARα Reporter Assay (luciferase, Indigo Biosciences). The conditions noted are these: antagonism; luciferase reporter cells, overnight incubation; read-out: PPARα IC50. The test is classed as cell-based. How it is done: Human PPARα Reporter Assay
The screening of test compounds for agonist or antagonist activities against human PPARα receptors was performed using a commercial kit, Human PPARα Reporter Assay System (Indigo Biosciences, Cat. #IB00111).
This nuclear receptor assay system utilizes proprietary non-human mammalian cells engineered to provide constitutive, high-level expression of Human PPARα. Because these cells incorporate a PPARα-responsive luciferase reporter gene, quantifying expressed luciferase activity provides a sensitive surrogate measure of PPARα activity in the treated cells. The primary application of this reporter assay system is in the screening of test samples to quantify any functional activity, either agonist or antagonist, that they may exert against human PPARα.
Briefly, reporter cells are dispensed into wells of the assay plate and then immediately dosed with test compounds. Following an overnight incubation, the treatment media is discarded and Luciferase Detection Reagent (LDR) is added. The intensity of light emission from the ensuing luciferase reaction provides a sensitive measure that is directly proportional to the relative level of PPARα activation in the reporter cells.
On the technique in general: In a reporter assay the amount or activity of a reporter protein is the signal.
As for `CC(C)(Oc1ccc(CCCC2=NN(c3cccc(C(F)(F)F)c3)C(=O)C2(C)C)cc1)C(=O)O` [Example 20, 2-(4-(3-(4,4-dimethyl-5-oxo-1-(3-(trifluoromethyl)phenyl)-4,5-dihydro-1H-pyrazol-3-yl)propyl)phenoxy)-2-methylpropanoic acid], the IC50 came out at 19 nM.

For the compound `CC(C)(Oc1ccc(CCCC2=NN(c3ccc(C(F)(F)F)cc3)C(=O)C23CCCC3)cc1)C(=O)NC1CC1` [Example 26, N-cyclopropyl-2-methyl-2-(4-(3-(4-oxo-3-(4-(trifluoromethyl)phenyl)-2,3-diazaspiro[4,4]non-1-en-1-yl)propyl)phenoxy)propanamide], the half-maximal inhibitory concentration (IC50) came out at 110 nM.

For the compound `CC(C)(Oc1ccc(CCCC2=NN(c3ccc(C(F)(F)F)cc3)C(=O)C2(C)C)cc1)C(=O)C(F)(F)F` [Example 44, 4,4-dimethyl-3-(3-(4-((4,4,4-trifluoro-2-methyl-3-oxobutan-2-yl)oxy)phenyl)propyl)-1-(4-(trifluoromethyl)phenyl)-1H-pyrazol-5(4H)-one], the IC50 was found to be 610 nM.

On to `CC(C)(Oc1ccc(CCCC2=NN(CCc3ccccc3)C(=O)C2(C)C)cc1)C(=O)O` [Example 9, 2-(4-(3-(4,4-dimethyl-5-oxo-1-phenethyl-4,5-dihydro-H-pyrazol-3-yl)propyl)phenoxy)-2-methylpropanoic acid], for which the IC50 worked out at 1000 nM.

As for `CC(C)(Oc1ccc(CCCC2=NN(Cc3ccc(C4=CCCCC4)cc3)C(=O)C2(C)C)cc1)C(=O)O` [Example 15, 2-(4-(3-(4,4-dimethyl-5-oxo-1-((2′,3′,4′,5′-tetrahydro-[1,1′-biphenyl]-4-yl)methyl)-4,5-dihydro-1H-pyrazol-3-yl)propyl)phenoxy)-2-methylpropanoic acid], the IC50 was determined as 130 nM.

With `CC(C)(Oc1ccc(CCCC2=NN(Cc3ccc(C(F)(F)F)cc3)C(=O)C2(C)C)cc1)C(=O)O` [Example 8, 2-(4-(3-(4,4-dimethyl-5-oxo-1-(4-(trifluoromethyl)benzyl)-4,5-dihydro-1H-pyrazol-3-yl)propyl)phenoxy)-2-methylpropanoic acid], the IC50 turned out to be 62 nM.

With `CC(C)(Oc1ccc(CCCC2=NN(Cc3ccc(C(C)(C)C)cc3)C(=O)C2(C)C)cc1)C(=O)NS(=O)(=O)c1ccccc1` [Example 2, 2-(4-(3-(1-(4-(tert-butyl)benzyl)-4,4-dimethyl-5-oxo-4,5-dihydro-1H-pyrazol-3-yl)propyl)phenoxy)-2-methyl-N-(phenylsulfonyl)propanamide], the IC50 is 2.1 nM.

On to `CC(C)(Oc1ccc(CCCC2=NN(Cc3ccc(-c4ccccc4)cc3)C(=O)C2(C)C)cc1)C(=O)O` [Example 14, 2-(4-(3-(1-([1,1′-biphenyl]-4-ylmethyl)-4,4-dimethyl-5-oxo-4,5-dihydro-1H-pyrazol-3-yl)propyl)phenoxy)-2-methylpropanoic acid], for which the IC50 amounted to 260 nM.

Turning to `CC(C)(Oc1ccc(CCCC2=NN(c3ccc(C(F)(F)F)cn3)C(=O)C2(C)C)cc1)C(=O)O` [Example 21, 2-(4-(3-(4,4-dimethyl-5-oxo-1-(5-(trifluoromethyl)pyridin-2-yl)-4,5-dihydro-1H-pyrazol-3-yl)propyl)phenoxy)-2-methylpropanoic acid], the IC50 is 35 nM.

On to `CC1(C)C(=O)N(c2cccc(C(F)(F)F)c2)N=C1CCCc1ccc(OC2(C(=O)O)CCC2)cc1` [Example 51, 1-(4-(3-(4,4-dimethyl-5-oxo-1-(3-(trifluoromethyl)phenyl)-4,5-dihydro-1H-pyrazol-3-yl)propyl)phenoxy)cyclobutanecarboxylic acid], for which the IC50 is 58 nM.

As for `CC(C)c1ccc(CN2N=C(CCCc3ccc(OC(C)(C)C(=O)O)cc3)C(C)(C)C2=O)cc1` [Example 12, 2-(4-(3-(1-(4-isopropylbenzyl)-4,4-dimethyl-5-oxo-4,5-dihydro-1H-pyrazol-3-yl)propyl)phenoxy)-2-methylpropanoic acid], the IC50 worked out at 22 nM.
